Data: patent US8178490B2, “Polybasic bacterial efflux pump inhibitors and therapeutic uses thereof” (priority 2007, dated 2012)
Values after ≈ are worked out from the molar mass of the structure shown.

Key:
[1] = system: P. aeruginosa PAM1723, overexpressing the MexABOprM efflux pump; type: cell-based, Pseudomonas aeruginosa; conditions: lowest inhibitor concentration giving antibacterial activity with levofloxacin at 1/8 of its MIC
From the text: (§1) EPI activity is defined as concentration of an EPI compound that is necessary to achieve ½ of a maximum theoretical effect in increase of antibiotic susceptibility due to efflux inhibition. The maximum theoretical effect, Emax, is defined as a ratio of antibacterial activity of antibiotics (minimal inhibitory concentration, MIC) of pump overexpressing vs. pump lacking strains. […] The strain PAM1723, overexpressing the MexABOprM efflux pump was used as a test strain. […] Azithromycin was used as test antibiotic to assess the EPI activity in Klebsiella pneumoniae. The strain KPM1004 overexpressing the AcrABTolC efflux pump was used as a test strain. […] Thus, EPI activity, that is assessed in K. pneumoniae, is a concentration of an EPI compound that is necessary to increase susceptibility to azithromicin of KPM1004 sixteen fold.
(§2) The EPI activity of the test compounds was assessed by the checkerboard assay (Antimicrobial Combinations, Antibiotics in Laboratory Medicine, Ed. Victor Lorian, M.D., Fourth edition, 1996, pp 333338, which is incorporated herein by reference in its entirety) using a broth microdilution method performed as recommended by the NCCLS (National Committee for Clinical Laboratory Standards (NCCLS), 1997, Methods for Dilution of Antimicrobial Susceptibility Tests for Bacteria That Grow Aerobically, Fourth Edition; Approved Standard. NCCLS Document M7A4, Vol 17 No. 2, which is incorporated herein by reference in its entirety). […] All EPI compounds were readily soluble in water and stock solutions were prepared at a final concentration of 10 mg/ml. Stock solutions were further diluted, according to the needs of the particular assay, in Mueller Hinton Broth (MHB). Stock solution was stored at −80° C. The checkerboard assay was performed in microtiter plates. […] EPIs were diluted in the axis, each row containing a single concentration of an EPI. […] The assay was performed in MHB with a final bacterial (PAM1723 or […]) inoculum of 5 times 10^5 CFU/ml (from an early log phase culture). Microtiter plates were incubated during 20 h at 35° C. and were read using a microtiter plate reader (Molecular Devices) at 650 nm as well as visual observation using a microtiter plate reading mirror.
(§3) Azithromycin potentiation activities of selected inhibitors for K. pneumoniae are reported as MPC16 values.

[2] = system: Klebsiella pneumoniae KPM1004 overexpressing the AcrABTolC efflux pump; test: microbe, parasite or virus in culture; type: cell-based; conditions: for MPC16 (μg/mL) Azithromycin, KPM1004): lowest inhibitor concentration giving antibacterial activity with azithromycin at 1/16 of its MIC, K. pneumoniae KPM1004
From the text: as §1, §2, §3

[3] = system: Klebsiella pneumoniae KPM1007 which lacks efflux; test: microbe, parasite or virus in culture; type: cell-based; conditions: read-out: Azithromycin MIC
[4] = Rat serum pharmacokinetics after 1.5-hour IV infusion; type: in vivo; conditions: […] IV infusion in 0.9% saline, total dose 2, 5, 10 or 20 mg/kg, two-compartment model
Description: In the experiment depicted in Table 7, above, rat serum pharmacokinetics of selected inhibitor compounds was evaluated after 1.5-hour IV infusion of 1.5 ml solution of corresponding efflux pump inhibitor in 0.9% saline. Depending on the concentration used the total infused dose was 2, 5, 10 or 20 mg/kg. A two-compartment model was used to fit the data and calculate PK parameters.

Cl.Cl.Cl.Cl.NCCN(CCN)C(=O)C[C@H](Nc1ccc2ncccc2c1)C(=O)N[C@@H](CC1CCCCC1)C(N)=O [Compound 13, 6-[(1S)-2-[bis(2-azaniumylethyl)carbamoyl]-1-{[(1S)-1-carbamoyl-2-cyclohexylethyl]carbamoyl}ethan-1-aminium]quinolin-1-ium tetrachloride]
MPC8 (μg/mL) (Levofloxacin, PAM1723) [1]: 1.25 µg/mL

Cl.Cl.Cl.Cl.Cl.NCCNCCN(CCN)C(=O)C[C@H](N)C(=O)N[C@@H](CCc1ccccc1)C(=O)Nc1cnc2ccccc2c1 [Compound 188, 3-[(2S)-2-[(1S)-2-[(2-azaniumylethyl)({2-[(2-azaniumylethyl)azaniumyl]ethyl})carbamoyl]-1-formamidoethan-1-aminium]-4-phenylbutanamido]quinolin-1-ium pentachloride]
MPC8 (μg/mL) (Levofloxacin, PAM1723) [1]: 0.6 µg/mL | MPC16 (μg/mL) Azithromycin, KPM1004) [2]: 1.25 µg/mL

3-[(1S)-3-[bis(2-azaniumylethyl)carbamoyl]-1-{[(1S)-1-carbamoyl-2-[4-(trifluoromethyl)phenyl]ethyl]carbamoyl}propan-1-aminium]quinolin-1-ium tetrachloride [Compound 28]
MPC8 (μg/mL) (Levofloxacin, PAM1723) [1]: 1.25 µg/mL | MPC16 (μg/mL) Azithromycin, KPM1004) [2]: 1.25 µg/mL

3-[(1S)-3-[bis(2-azaniumylethyl)carbamoyl]-1-{[(1S)-1-carbamoyl-2-[4-(trifluoromethyl)phenyl]ethyl](methyl)carbamoyl}propan-1-aminium]quinolin-1-ium tetrachloride [Compound 5]
MPC8 (μg/mL) (Levofloxacin, PAM1723) [1]: 0.6 µg/mL

NCCN(CCN)C(=O)CC[C@H](N)C(=O)N/C(=C/c1ccc(C(F)(F)F)cc1)C(=O)Nc1cnc2ccccc2c1 [Compound 4, 3-[(1S)-3-[bis(2-azaniumylethyl)carbamoyl]-1-{[(1E)-1-carbamoyl-2-[4-(trifluoromethyl)phenyl]eth-1-en-1-yl]carbamoyl}propan-1-aminium]quinolin-1-ium tetrachloride]
MPC8 (μg/mL) (Levofloxacin, PAM1723) [1]: 1.25 µg/mL | MPC16 (μg/mL) Azithromycin, KPM1004) [2]: 1.25 µg/mL

3-[(1S)-3-[bis(2-azaniumylethyl)carbamoyl]-1-{[(1R)-1-carbamoyl-2-[4-(trifluoromethyl)phenyl]ethyl]carbamoyl}propan-1-aminium]quinolin-1-ium tetrachloride [Compound 1]
MPC8 (μg/mL) (Levofloxacin, PAM1723) [1]: 0.3 µg/mL | MPC16 (μg/mL) Azithromycin, KPM1004) [2]: 0.6 µg/mL

CC[C@H]1OC(=O)[C@H](C)[C@@H](O[C@H]2C[C@@](C)(OC)[C@@H](O)[C@H](C)O2)[C@H](C)[C@@H](O[C@@H]2O[C@H](C)C[C@H](N(C)C)[C@H]2O)[C@](C)(O)C[C@@H](C)CN(C)[C@H](C)[C@@H](O)[C@]1(C)O [Azithromycin, reference compound]
MIC [3]: 0.125 µg/mL (≈ 0.167 µM) | MIC ([2]; Klebsiella pneumoniae, read-out: Azithromycin MIC): 32 µg/mL | Emax (ratio of MIC of pump overexpressing vs. pump lacking strains) ([2]; azithromycin, KPM1004 vs KPM1007): 256

3-[(1S)-3-[bis(2-azaniumylethyl)carbamoyl]-1-{[(1S,2R)-1-carbamoyl-2-hydroxy-2-[4-(trifluoromethyl)phenyl]ethyl]carbamoyl}propan-1-aminium]quinolin-1-ium tetrachloride [Compound 3]
pharmacokinetic profile [4]: particularly attractive pharmacokinetic profiles | MPC8 (μg/mL) (Levofloxacin, PAM1723) [1]: 1.25 µg/mL | MPC16 (μg/mL) Azithromycin, KPM1004) [2]: 1.25 µg/mL

Cl.Cl.Cl.Cl.NCCN(CCN)C(=S)C(C[C@H](N)C(=O)N[C@H](Cc1ccc(C(F)(F)F)cc1)C(N)=O)c1cnc2ccccc2c1 (stereo partly drawn) [Compound 12, 3-[(1S)-3-[bis(2-azaniumylethyl)carbamothioyl]-1-{[(1R)-1-carbamoyl-2-[4-(trifluoromethyl)phenyl]ethyl]carbamoyl}propan-1-aminium]quinolin-1-ium tetrachloride]
MPC8 (μg/mL) (Levofloxacin, PAM1723) [1]: 1.25 µg/mL | MPC16 (μg/mL) Azithromycin, KPM1004) [2]: 1.25 µg/mL
